Results taken from PubChem BioAssay AID2060505 (Molecular Pharmacology Branch, DTP, NCI, 2025).

System: 633275-114-R-J1-PDC complex spheroids, viability
Test: Anticancer human tumor 633275-114-R-J1-PDC patient-derived endometrial adenocarcinoma cell line growth inhibition [GQUAD]
Conditions: for IC50: curve of first compound; for viability, T/C: stronger effect = lower value
How it was run: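 Viability of tumor cells grown as complex spheroids with endothelial and stromal cells, exposed to drug combinations. Top concentration at or near clinical Cmax (else 10 microM), diluted in half-log increments.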

[1] = second compound 0.0316 µM, first compound 0.0316 µM
[2] = second compound 0.0316 µM, first compound 0.1 µM
[3] = second compound 0.0316 µM, first compound 0.316 µM
[4] = second compound 0.0316 µM, first compound 1 µM
[5] = second compound 0.0316 µM, first compound 3.16 µM
[6] = second compound 0.0316 µM, first compound 10 µM
[7] = second compound 0.1 µM, first compound 0.0316 µM
[8] = second compound 0.1 µM, first compound 0.1 µM
[9] = second compound 0.1 µM, first compound 0.316 µM
[10] = second compound 0.1 µM, first compound 1 µM
[11] = second compound 0.1 µM, first compound 3.16 µM
[12] = second compound 0.1 µM, first compound 10 µM
[13] = second compound 0.316 µM, first compound 0.0316 µM
[14] = second compound 0.316 µM, first compound 0.1 µM
[15] = second compound 0.316 µM, first compound 0.316 µM
[16] = second compound 0.316 µM, first compound 1 µM
[17] = second compound 0.316 µM, first compound 3.16 µM
[18] = second compound 0.316 µM, first compound 10 µM
[19] = second compound 1 µM, first compound 0.0316 µM
[20] = second compound 1 µM, first compound 0.1 µM
[21] = second compound 1 µM, first compound 0.316 µM
[22] = second compound 1 µM, first compound 1 µM
[23] = second compound 1 µM, first compound 3.16 µM
[24] = second compound 1 µM, first compound 10 µM
[25] = second compound 3.16 µM, first compound 0.0316 µM
[26] = second compound 3.16 µM, first compound 0.1 µM
[27] = second compound 3.16 µM, first compound 0.316 µM
[28] = second compound 3.16 µM, first compound 1 µM
[29] = second compound 3.16 µM, first compound 3.16 µM
[30] = second compound 3.16 µM, first compound 10 µM
[31] = second compound 10 µM, first compound 0.0316 µM
[32] = second compound 10 µM, first compound 0.1 µM
[33] = second compound 10 µM, first compound 0.316 µM
[34] = second compound 10 µM, first compound 1 µM
[35] = second compound 10 µM, first compound 3.16 µM
[36] = second compound 10 µM, first compound 10 µM
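Note: spheroids exposed to the agents for seven days.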
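Throughout, for viability, T/C: percent of DMSO vehicle control viability which is 100%.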

**Q.** For `O=C(c1cc(Cc2n[nH]c(=O)c3ccccc23)ccc1F)N1CCN(C(=O)C2CC2)CC1` + CN(C)c1ccc(Nc2c3ccc(NC(=O)CCN4CCCC4)cc3nc3cc(NC(=O)CCN4CCCC4)ccc23)cc1, which IC50 (second compound 0.0316 µM) is on record?
**A.** 9.96 µM

**Q.** What about the IC50 (second compound 0.1 µM) of the same compound?
**A.** 9.89 µM

**Q.** And the IC50 (second compound 0.316 µM)?
**A.** > 10 µM

**Q.** And the IC50 (second compound 1 µM)?
**A.** > 10 µM

**Q.** What about the IC50 (second compound 3.16 µM) of the same compound?
**A.** 5.36 µM

**Q.** And the IC50 (second compound 10 µM)?
**A.** < 0.0316 µM

**Q.** And the viability, T/C [1]?
**A.** 88.7%

**Q.** What about the viability, T/C [2] of the same compound?
**A.** 93.8%

**Q.** What about the viability, T/C [3] of the same compound?
**A.** 95%

**Q.** And the viability, T/C [4]?
**A.** 80%

**Q.** What about the viability, T/C [5] of the same compound?
**A.** 81.6%

**Q.** And the viability, T/C [6]?
**A.** 49.2%

**Q.** And the viability, T/C [7]?
**A.** 95.5%

**Q.** And the viability, T/C [8]?
**A.** 98.1%

**Q.** And the viability, T/C [9]?
**A.** 92.7%

**Q.** What about the viability, T/C [10] of the same compound?
**A.** 79.7%

**Q.** What about the viability, T/C [11] of the same compound?
**A.** 69%

**Q.** What about the viability, T/C [12] of the same compound?
**A.** 49.2%

**Q.** What about the viability, T/C [13] of the same compound?
**A.** 91.1%

**Q.** What about the viability, T/C [14] of the same compound?
**A.** 99.8%

**Q.** What about the viability, T/C [15] of the same compound?
**A.** 88.4%

**Q.** And the viability, T/C [16]?
**A.** 76.1%

**Q.** And the viability, T/C [17]?
**A.** 75.8%

**Q.** What about the viability, T/C [18] of the same compound?
**A.** 58.4%

**Q.** And the viability, T/C [19]?
**A.** 104%

**Q.** And the viability, T/C [20]?
**A.** 82.9%

**Q.** What about the viability, T/C [21] of the same compound?
**A.** 78.7%

**Q.** What about the viability, T/C [22] of the same compound?
**A.** 78.3%

**Q.** What about the viability, T/C [23] of the same compound?
**A.** 69.8%

**Q.** And the viability, T/C [24]?
**A.** 47.8%

**Q.** What about the viability, T/C [25] of the same compound?
**A.** 75.5%

**Q.** And the viability, T/C [26]?
**A.** 80.6%

**Q.** And the viability, T/C [27]?
**A.** 69.6%

**Q.** What about the viability, T/C [28] of the same compound?
**A.** 65.5%

**Q.** What about the viability, T/C [29] of the same compound?
**A.** 62.9%

**Q.** What about the viability, T/C [30] of the same compound?
**A.** 38%

**Q.** And the viability, T/C [31]?
**A.** 25.3%

**Q.** What about the viability, T/C [32] of the same compound?
**A.** 26.1%

**Q.** What about the viability, T/C [33] of the same compound?
**A.** 27.1%

**Q.** What about the viability, T/C [34] of the same compound?
**A.** 25.4%

**Q.** And the viability, T/C [35]?
**A.** 29%

**Q.** What about the viability, T/C [36] of the same compound?
**A.** 21.1%

**Q.** Which results are given for `CC1COCCN1c1cc(C2(O)CC3CCC(C2)O3)c2cnn(-c3ccn[nH]3)c2n1` (stereo unspecified) + Cc1cnc(CNC(=O)c2c(=O)c3ccc(N4CCCN(C)CC4)nc3n3c2sc2ccccc23)cn1?
**A.** IC50 (second compound 0.0316 µM): < 0.0316 µM; IC50 (second compound 0.1 µM): < 0.0316 µM; IC50 (second compound 0.316 µM): < 0.0316 µM; IC50 (second compound 1 µM): < 0.0316 µM; IC50 (second compound 3.16 µM): < 0.0316 µM; IC50 (second compound 10 µM): < 0.0316 µM; viability, T/C [1]: 37.6%; viability, T/C [2]: 31.2%; viability, T/C [3]: 25%; viability, T/C [4]: 19.6%; viability, T/C [5]: 12.4%; viability, T/C [6]: 8.78%; viability, T/C [7]: 38.3%; viability, T/C [8]: 28.8%; viability, T/C [9]: 24.3%; viability, T/C [10]: 17.5%; viability, T/C [11]: 11.4%; viability, T/C [12]: 7.39%; viability, T/C [13]: 36.4%; viability, T/C [14]: 33%; viability, T/C [15]: 25%; viability, T/C [16]: 15.8%; viability, T/C [17]: 11.2%; viability, T/C [18]: 6.81%; viability, T/C [19]: 29.6%; viability, T/C [20]: 27.9%; viability, T/C [21]: 24.2%; viability, T/C [22]: 14.8%; viability, T/C [23]: 10.2%; viability, T/C [24]: 4.76%; viability, T/C [25]: 31.6%; viability, T/C [26]: 25.4%; viability, T/C [27]: 19.5%; viability, T/C [28]: 12.9%; viability, T/C [29]: 9.19%; viability, T/C [30]: 5.97%; viability, T/C [31]: 29.4%; viability, T/C [32]: 24.4%; viability, T/C [33]: 17%; viability, T/C [34]: 12.7%; viability, T/C [35]: 10.2%; viability, T/C [36]: 0.18%

**Q.** What does the source list for `C#Cc1c(F)ccc2cc(O)cc(-c3ncc4c(N5CC6CCC(C5)N6)nc(OCC56CCCN5CC(F)C6)nc4c3F)c12` (stereo unspecified) + Cc1cnc(CNC(=O)c2c(=O)c3ccc(N4CCCN(C)CC4)nc3n3c2sc2ccccc23)cn1?
**A.** IC50 (second compound 0.0316 µM): 3.91 µM; IC50 (second compound 0.1 µM): 0.157 µM; IC50 (second compound 0.316 µM): < 0.0316 µM; IC50 (second compound 1 µM): < 0.0316 µM; IC50 (second compound 3.16 µM): < 0.0316 µM; IC50 (second compound 10 µM): < 0.0316 µM; viability, T/C [1]: 68.9%; viability, T/C [2]: 72.5%; viability, T/C [3]: 65.2%; viability, T/C [4]: 58.7%; viability, T/C [5]: 47.1%; viability, T/C [6]: 45.6%; viability, T/C [7]: 52.3%; viability, T/C [8]: 49.7%; viability, T/C [9]: 52.1%; viability, T/C [10]: 44.7%; viability, T/C [11]: 39.8%; viability, T/C [12]: 38.9%; viability, T/C [13]: 47.1%; viability, T/C [14]: 49.8%; viability, T/C [15]: 43.7%; viability, T/C [16]: 36.4%; viability, T/C [17]: 37.2%; viability, T/C [18]: 26.8%; viability, T/C [19]: 41.7%; viability, T/C [20]: 42.1%; viability, T/C [21]: 42.1%; viability, T/C [22]: 36.3%; viability, T/C [23]: 30.9%; viability, T/C [24]: 26.8%; viability, T/C [25]: 38.4%; viability, T/C [26]: 36.2%; viability, T/C [27]: 34.4%; viability, T/C [28]: 31.5%; viability, T/C [29]: 27.7%; viability, T/C [30]: 24.3%; viability, T/C [31]: 31.3%; viability, T/C [32]: 32.9%; viability, T/C [33]: 26.5%; viability, T/C [34]: 27.2%; viability, T/C [35]: 23.7%; viability, T/C [36]: 23.1%
